Source: publication PMC6627609, “Targeting Quorum Sensing: High-Throughput Screening to Identify Novel LsrK Inhibitors” (International Journal of Molecular Sciences, 2019)
Where a name gives a salt, the structure may show the parent alone.

Biological target: LsrK (Salmonella typhimurium, UniProt Q8ZKQ6)
Assay: biochemical
Type: biochemical, S. typhimurium
Conditions: for Inhibition (%): 50 µM

Chain of LsrK (Q8ZKQ6 whole entry): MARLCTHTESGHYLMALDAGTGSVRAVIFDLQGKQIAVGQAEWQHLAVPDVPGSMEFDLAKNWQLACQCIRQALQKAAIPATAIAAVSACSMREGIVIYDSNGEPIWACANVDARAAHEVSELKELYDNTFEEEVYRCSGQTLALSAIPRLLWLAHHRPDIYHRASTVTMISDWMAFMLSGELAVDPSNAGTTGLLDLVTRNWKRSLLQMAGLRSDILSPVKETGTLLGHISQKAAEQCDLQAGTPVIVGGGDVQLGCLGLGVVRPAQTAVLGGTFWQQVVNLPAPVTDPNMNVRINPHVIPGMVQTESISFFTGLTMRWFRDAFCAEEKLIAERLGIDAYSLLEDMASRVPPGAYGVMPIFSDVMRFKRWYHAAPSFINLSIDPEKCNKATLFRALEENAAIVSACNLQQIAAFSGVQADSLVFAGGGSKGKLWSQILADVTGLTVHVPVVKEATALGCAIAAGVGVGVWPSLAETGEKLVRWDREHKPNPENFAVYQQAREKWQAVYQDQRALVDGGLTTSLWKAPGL

| Molecule | inhibition at 50 µM | further results |
| --- | --- | --- |
| CC(C)=CCC/C(C)=C/CC/C(C)=C/CC/C(C)=C/CC/C(C)=C/CC/C(C)=C/CC/C(C)=C/CC/C(C)=C/CC/C(C)=C/CO [SOLANESOL] |  | Inhibition (%): 1 |
| CN(C)c1ccc(O)c2c1C[C@H]1C[C@H]3[C@H](N(C)C)C(O)=C(C(N)=O)C(=O)[C@@]3(O)C(O)=C1C2=O [MINOCYCLINE HYDROCHLORIDE] | 71% |  |
| CN(C/C=C/C#CC(C)(C)C)Cc1cccc2ccccc12 [TERBINAFINE HYDROCHLORIDE] | 1% |  |
| COc1ccc2cc([C@H](C)CO)ccc2c1 [NAPROXOL] | 0% |  |
| COc1ccc(-c2oc3ccccc3c(=O)c2O)cc1OC [3-HYDROXY-3'.4'-DIMETHOXYFLAVONE] |  | Inhibition (%): 0 |
| COc1ccc(CN(CCN(C)C)c2ncccn2)cc1 [THONZYLAMINE HYDROCHLORIDE, reference compound] | 112% | IC50: 24 µM |
| N#Cc1c(Cl)c(Cl)c(Cl)c(C#N)c1Cl [TETRACHLOROISOPHTHALONITRILE] | 138% | IC50: 9 µM |
| COc1ccc(C2CNC(=O)C2)cc1OC1CCCC1 (stereo not drawn) [ROLIPRAM] | 1% |  |
| c1ccc([C@H]2CN3CCSC3=N2)cc1 [LEVAMISOLE HYDROCHLORIDE] | 1% |  |
| CC(C)NCC(O)c1cc(O)cc(O)c1 (stereo not drawn) [METAPROTERENOL] | 3% |  |
| C[C@H](N)[C@H](O)c1ccc(O)c(O)c1 [LEVONORDEFRIN] | 123% |  |
| CCC(C)(C)C(=O)O[C@H]1C[C@@H](C)C=C2C=C[C@H](C)[C@H](CC[C@@H]3C[C@@H](O)CC(=O)O3)[C@H]21 [SIMVASTATIN] | 3% |  |
| C=C[C@@]1(C)CC(=O)[C@]2(O)[C@@]3(C)[C@@H](O)CCC(C)(C)[C@@H]3[C@H](O)[C@H](OC(C)=O)[C@@]2(C)O1 [COLFORSIN] | 1% |  |
| ASARININ (-) |  | Inhibition (%): 1 |
| O=c1oc2c(O)c(O)cc3c(=O)oc4c(O)c(O)cc1c4c23 [ELLAGIC ACID] | 7% |  |
| C=CCc1ccccc1OCC(O)CNC(C)C (stereo not drawn) [ALPRENOLOL] | 0% |  |
| N.N.[Cl][Pt][Cl] [CISPLATIN] |  | Inhibition (%): 2 |
| COc1ccc([C@@H]2CC(=O)c3c(O)cc(O)cc3O2)cc1O [HESPERETIN] | 0% |  |
| Cc1ccc(C(=O)c2ccc(CC(=O)O)n2C)cc1 [TOLMETIN SODIUM] | 1% |  |
| COc1cc(C)c(C(=O)Oc2cc(C)c(C(=O)O)c(O)c2C)c(OC)c1C [D[…]] | 35% |  |
| COc1ccc(-c2coc3cc(O)ccc3c2=O)c(O)c1O [KOPARIN] | 118% |  |

| Molecule | inhibition at 50 µM | further results |
| --- | --- | --- |
| COc1c(C)c2c(c(O)c1C/C=C(\C)CCC(=O)O)C(=O)OC2 [MYCOPHENOLIC ACID] | 1% |  |
| O=C(c1ccccc1)c1ccc2n1CCC2C(=O)O (stereo not drawn) [KETOROLAC TROMETHAMINE] | 0% |  |
| NC1=NCCN1CC(=O)O [CYCLOCREATINE] | 0% |  |
| CN(C)C(=S)SSC(=S)N(C)C [THIRAM] | 104% |  |
| OC[C@H]1O[C@@H](n2cnc3c(NCc4ccco4)ncnc32)[C@H](O)[C@@H]1O [KINETIN RIBOSIDE] | 0% |  |
| COC1=CC(=O)C(C(=O)c2ccccc2)=CC1=O [2-BENZOYL-5-METHOXYBENZOQUINONE] | 38% |  |
| CRESOL |  | Inhibition (%): 0 |
| CC[n+]1c(-c2ccccc2)c2cc(N)ccc2c2ccc(N)cc21 [HOMIDIUM BROMIDE] | 72% |  |
| O=c1c2ccccc2[se]n1-c1ccccc1 [EBSELEN] | 6% |  |
| CC(C)[C@H](N)C(=O)OCCOCn1cnc2c(=O)[nH]c(N)nc21 [VALACYCLOVIR HYDROCHLORIDE] | 2% |  |
| C[N+](C)(C)CCCCCC[N+](C)(C)C [HEXAMETHONIUM BROMIDE] | 2% |  |
| CC(C)NNC(=O)c1ccncc1 [[…]] | 0% |  |
| O=C(O[C@@H]1Cc2c(O)cc(O)cc2O[C@@H]1c1cc(O)c(O)c(O)c1)c1cc(O)c(O)c(O)c1 [EPIGALLOCATECHIN-3-MONOGALLATE] |  | Inhibition (%): 87 |
| CC1=C(/C=C/C(C)=C/C=C/C(C)=C/C=C/C=C(C)/C=C/C=C(C)/C=C/C2=C(C)C(=O)CCC2(C)C)C(C)(C)CCC1=O [CANTHAXANTHIN (euglenanone), CANTHAXANTHIN] |  | Inhibition (%): 2 |
| COC(=O)C1=C(C)NC(C)=C(C(=O)OCC(C)C)C1c1ccccc1[N+](=O)[O-] (stereo not drawn) [NISOLDIPINE] | 154% |  |
| C[N+]1(C)CCC(OC(=O)C(O)(c2ccccc2)C2CCCC2)C1 (stereo not drawn) [GLYCOPYRROLATE] | 0% |  |
| CC1(C)S[C@@H]2[C@H](NC(=O)[C@H](NC(=O)N3CCNC3=O)c3ccccc3)C(=O)N2[C@H]1C(=O)O [AZLOCILLIN SODIUM] | 0% |  |
| IVERMECTIN |  | Inhibition (%): 1 |
| CN(C)CCc1c[nH]c2ccc(Cn3cncn3)cc12 [RIZATRIPTAN BENZOATE] | 1% |  |
| CN1CCOC(c2ccccc2)c2ccccc2C1 (stereo not drawn) [NEFOPAM] | 1% |  |
| Cc1cc(O)c(C=O)c(O)c1C(=O)O [H[…]] | 1% |  |

| Molecule | inhibition at 50 µM | further results |
| --- | --- | --- |
| BENZALKONIUM CHLORIDE |  | Inhibition (%): 121 |
| O=c1c(O)c(-c2ccc(O)c(O)c2)oc2c(O[C@@H]3O[C@H](CO)[C@@H](O)[C@H](O)[C@H]3O)c(O)cc(O)c12 [GOSSYPIN] |  | Inhibition (%): 57 |
| O=C1C(O)=C([C@H]2CC[C@H](c3ccc(Cl)cc3)CC2)C(=O)c2ccccc21 [ATOVAQUONE] | 1% |  |
| CN(C)c1ccc2nc3ccc(=[N+](C)C)cc-3sc2c1 [METHYLENE BLUE] | 3% |  |
| C=C1c2cccc(O)c2C(=O)C2=C(O)[C@]3(O)C(=O)C(C(N)=O)=C(O)[C@@H](N(C)C)[C@@H]3[C@@H](O)[C@H]12 [METHACYCLINE HYDROCHLORIDE] | 97% |  |
| C[C@H]1[C@H]2CC[C@H]3[C@@H]4CC=C5C[C@@H](N(C)C)CC[C@]5(C)[C@H]4CC[C@]23CN1C [CONESSINE] | 2% |  |
| CCCCC(CC)CNC(=N)NC(=N)NCCCCCCNC(=N)NC(=N)NCC(CC)CCCC (stereo not drawn) [ALEXIDINE HYDROCHLORIDE] | 146% |  |
| C/C=C/c1ccc2c(c1)OCO2 [ISOSAFROLE] | 1% |  |
| CC(C)NCC(O)COc1ccc(COCCOC(C)C)cc1 (stereo not drawn) [BISOPROLOL FUMARATE] | 0% |  |
| CN(C)CCOc1ccc(/C(=C(/CCCl)c2ccccc2)c2ccccc2)cc1 [TOREMIPHENE CITRATE] |  | Inhibition (%): 138 |
| Cc1ccc(-c2cc(C(F)(F)F)nn2-c2ccc(S(N)(=O)=O)cc2)cc1 [CELECOXIB] | 1% |  |
| COc1cccc2c1C(=O)c1c(O)c3c(c(O)c1C2=O)C[C@@](O)(C(C)=O)C[C@@H]3O[C@H]1C[C@H](N)[C@H](O)[C@H](C)O1 [DAUNORUBICIN] | 2% |  |
| GARLICIN |  | Inhibition (%): 10 |
| O=C1CCc2cc(OCCCCc3nnnn3C3CCCCC3)ccc2N1 [CILOSTAZOL] | 2% |  |
| C[C@]12CC[C@@H](O)C[C@@H]1CC[C@@H]1[C@@H]2CC[C@]2(C)C(=O)CC[C@@H]12 [ANDROSTERONE] | 1% |  |
| CC(=O)Oc1cccc(O)c1 [RESORCINOL MONOACETATE] | 1% |  |
| CCN(CCCc1ccccc1)CCCc1ccccc1 [ALVERINE CITRATE] | 1% |  |
| Cn1c(=O)c2c(ncn2CC(O)CO)n(C)c1=O (stereo not drawn) [DYPHYLLINE] | 1% |  |
| COc1cccc(OC)c1C(=O)N[C@@H]1C(=O)N2[C@@H]1SC(C)(C)[C@@H]2C(=O)O [METHICILLIN SODIUM] | 1% |  |
